Structures can show the parent of a compound that is named as a salt.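 96-well plates; 48 h exposure; 5 concentrations. Endpoints by linear interpolation between flanking doses. Not reached: highest tested concentration assigned. GI50 = concentration required for 50% inhibition of growth.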 The source made the active and inactive calls. No stated cut-off is given here; in the data, active = GI50 up to about 1.1 µM and inactive = higher.
Legend:
Test in all cases: NCI-60 cell line screen, 48 h
A549 = system: A549
SR = system: SR
IGROV-1 = system: IGROV-1
SK-MEL-2 = system: SK-MEL-2
Hs-578T = system: Hs-578T
TK-10 = system: TK-10
K562 = system: K562
UACC-257 = system: UACC-257
HCC 2998 = system: HCC 2998
HOP-92 = system: HOP-92
MOLT-4 = system: MOLT-4
UO-31 = system: UO-31
T47D = system: T47D
PC-3 = system: PC-3
RXF 393 = system: RXF 393
UACC-62 = system: UACC-62
HCT-15 = system: HCT-15
ACHN = system: ACHN
MCF7 = system: MCF7
BT-549 = system: BT-549
MDA-MB-231 = system: MDA-MB-231
NCI-H226 = system: NCI-H226
CCRF-CEM = system: CCRF-CEM
HOP-62 = system: HOP-62
OVCAR-8 = system: OVCAR-8
LOX IMVI = system: LOX IMVI
786-0 = system: 786-0
OVCAR-4 = system: OVCAR-4
MDA-N = system: MDA-N
COLO 205 = system: COLO 205
HCT-116 = system: HCT-116
HT-29 = system: HT-29
A498 = system: A498
M14 = system: M14
SK-MEL-5 = system: SK-MEL-5
EKVX = system: EKVX
NCI/ADR-RES = system: NCI/ADR-RES
OVCAR-3 = system: OVCAR-3
NCI-H23 = system: NCI-H23
DU-145 = system: DU-145
NCI-H460 = system: NCI-H460
OVCAR-5 = system: OVCAR-5
SW-620 = system: SW-620
SNB-75 = system: SNB-75
Malme-3M = system: Malme-3M
CAKI-1 = system: CAKI-1
HL-60 = system: HL-60
SF-268 = system: SF-268
SF-295 = system: SF-295
KM12 = system: KM12
SNB-19 = system: SNB-19
SK-MEL-28 = system: SK-MEL-28
SF-539 = system: SF-539
NCI-H522 = system: NCI-H522
SK-OV-3 = system: SK-OV-3
U-251 = system: U-251
SN12C = system: SN12C

With `CC/C(=C(\c1ccccc1)c1ccc(OCCN(C)C)cc1)c1ccccc1` [TAMOXIFEN CITRATE] the GI50 (A549) was 5.79 µM (inactive), the GI50 (SR) was 4.86 µM (inactive) and the GI50 (IGROV-1) was 5.75 µM (inactive). For the same compound, the GI50 (SK-MEL-2) was 5.45 µM (inactive), the GI50 (Hs-578T) was 5.58 µM (inactive) and the GI50 (TK-10) was 5.18 µM (inactive). For the same compound, the GI50 (K562) was 3.3 µM (inactive), the GI50 (UACC-257) was 4.81 µM (inactive) and the GI50 (HCC 2998) was 3.81 µM (inactive). The GI50 (HOP-92) was 4.57 µM (inactive), the GI50 (MOLT-4) was 3.4 µM (inactive) and the GI50 (UO-31) was 4.14 µM (inactive). For the same compound, the GI50 (T47D) was 3.05 µM (inactive), the GI50 (PC-3) was 4.18 µM (inactive) and the GI50 (RXF 393) was 3.87 µM (inactive). The GI50 (UACC-62) was 5.26 µM (inactive), the GI50 (HCT-15) was 4.67 µM and the GI50 (ACHN) was 6.1 µM (inactive). For the same compound, the GI50 (MCF7) was 1.65 µM (inactive), the GI50 (BT-549) was 6.07 µM (inactive) and the GI50 (MDA-MB-231) was 4.97 µM (inactive). For the same compound, the GI50 (NCI-H226) was 6.34 µM (inactive), the GI50 (CCRF-CEM) was 4.75 µM (inactive) and the GI50 (HOP-62) was 5.12 µM (inactive). For the same compound, the GI50 (OVCAR-8) was 6.32 µM (inactive), the GI50 (LOX IMVI) was 3.99 µM (inactive) and the GI50 (786-0) was 4.43 µM (inactive). The GI50 (OVCAR-4) was 5.6 µM (inactive), the GI50 (MDA-N) was 4.68 µM (inactive) and the GI50 (COLO 205) was 4.1 µM (inactive). The GI50 (HCT-116) was 4.8 µM (inactive), the GI50 (HT-29) was 3.44 µM (inactive) and the GI50 (A498) was 4.38 µM (inactive). For the same compound, the GI50 (M14) was 4.42 µM (inactive), the GI50 (SK-MEL-5) was 4.17 µM (inactive) and the GI50 (EKVX) was 7.03 µM (inactive). The GI50 (NCI/ADR-RES) was 5.28 µM (inactive), the GI50 (OVCAR-3) was 5 µM (inactive) and the GI50 (NCI-H23) was 5.93 µM (inactive).
With `O=C1CCCC2C(O)CCC[C@H]12` (stereo partly drawn) the GI50 (A549) was > 100 µM (inactive), the GI50 (DU-145) was > 100 µM (inactive) and the GI50 (SR) was > 100 µM (inactive). For the same compound, the GI50 (NCI-H460) was > 100 µM (inactive), the GI50 (OVCAR-5) was > 100 µM (inactive) and the GI50 (IGROV-1) was > 100 µM (inactive). For the same compound, the GI50 (SW-620) was > 100 µM (inactive), the GI50 (SNB-75) was > 100 µM (inactive) and the GI50 (SK-MEL-2) was > 100 µM (inactive). The GI50 (Malme-3M) was > 100 µM (inactive), the GI50 (Hs-578T) was > 100 µM (inactive) and the GI50 (TK-10) was > 100 µM (inactive). The GI50 (CAKI-1) was > 100 µM (inactive), the GI50 (K562) was > 100 µM (inactive) and the GI50 (UACC-257) was > 100 µM (inactive). The GI50 (HL-60) was > 100 µM (inactive), the GI50 (SF-268) was > 100 µM (inactive) and the GI50 (HCC 2998) was > 100 µM (inactive). For the same compound, the GI50 (MOLT-4) was > 100 µM (inactive), the GI50 (UO-31) was 51.1 µM (inactive) and the GI50 (T47D) was > 100 µM (inactive). For the same compound, the GI50 (PC-3) was > 100 µM (inactive), the GI50 (SF-295) was > 100 µM (inactive) and the GI50 (RXF 393) was 11.4 µM (inactive). For the same compound, the GI50 (UACC-62) was > 100 µM (inactive), the GI50 (KM12) was > 100 µM (inactive) and the GI50 (HCT-15) was > 100 µM. For the same compound, the GI50 (SNB-19) was > 100 µM (inactive), the GI50 (ACHN) was > 100 µM (inactive) and the GI50 (MCF7) was > 100 µM (inactive). For the same compound, the GI50 (BT-549) was > 100 µM (inactive), the GI50 (MDA-MB-231) was > 100 µM (inactive) and the GI50 (SK-MEL-28) was > 100 µM (inactive). The GI50 (NCI-H226) was > 100 µM (inactive), the GI50 (CCRF-CEM) was > 100 µM (inactive) and the GI50 (HOP-62) was > 100 µM (inactive). The GI50 (OVCAR-8) was > 100 µM (inactive), the GI50 (LOX IMVI) was > 100 µM (inactive) and the GI50 (786-0) was > 100 µM (inactive). For the same compound, the GI50 (SF-539) was > 100 µM (inactive), the GI50 (OVCAR-4) was > 100 µM (inactive) and the GI50 (MDA-N) was > 100 µM (inactive). For the same compound, the GI50 (COLO 205) was > 100 µM (inactive), the GI50 (HCT-116) was > 100 µM (inactive) and the GI50 (HT-29) was > 100 µM (inactive). For the same compound, the GI50 (NCI-H522) was > 100 µM (inactive), the GI50 (M14) was > 100 µM (inactive) and the GI50 (SK-MEL-5) was > 100 µM (inactive). For the same compound, the GI50 (SK-OV-3) was > 100 µM (inactive), the GI50 (EKVX) was > 100 µM (inactive) and the GI50 (NCI/ADR-RES) was > 100 µM (inactive). For the same compound, the GI50 (U-251) was > 100 µM (inactive), the GI50 (SN12C) was > 100 µM (inactive) and the GI50 (NCI-H23) was > 100 µM (inactive).
